A word on the Ki: it is the dissociation constant of the complex between target and ligand, obtained from inhibition or displacement.

The test addresses PI3Kγ (Homo sapiens, UniProt P48736). Nature of the test: PI3K Inhibition Assay (33P-ATP, PI(4,5)P2 substrate, filter plate scintillation counting). The class given is biochemical. The conditions noted are these: 3 μM ATP, 30 μM PI(4,5)P2, 2 nM final enzyme, 30 min at 25° C., competitive tight binding Ki fit. On the procedure: One test well also contained 1.5 μL of DMSO with no compound. […] Using a Titertek Multidrop, 50 μL of Reaction Mix [100 mM HEPES pH 7.5, 50 mM NaCl, 10 mM DTT, 0.2 mg/mL BSA, 60 μM phosphatidylinositol(4,5)-bisphosphate diC16 (PI(4,5)P2; Avanti Polar Lipids, Cat. No. 840046P) and PI3K isoform of interest (see Table 3 for isoform concentrations)] was added to each well. To initiate the reaction, 50 μL of ATP Mix [20 mM MgCl2, 6 μM ATP (100 μCi/μmole ^33P-ATP)] was added each well, followed by incubating the wells for 30 min. at 25° C. Final concentrations in each well were 50 mM HEPES 7.5, 10 mM MgCl2, 25 mM NaCl, 5 mM DTT, 0.1 mg/mL BSA, 30 μM PI(4,5)P2, 3 μM ATP, and the PI3K isoform of interest (see Table 3). Final compound concentrations in each well ranged from 10 μM to 1 nM.
After incubation, the reactions in each well were quenched by addition of 50 μL of stop solution [30% TCA/Water, 10 mM ATP]. […] 50 μL of scintillation fluid was added to each well and the plate read on a Perkin-Elmer TopCount™ NXT liquid scintillation counter to obtain ^33P-counts representing inhibition values.
The value for the background well was subtracted from the value obtained for each test well and the data were fit to the competitive tight binding Ki equation described by Morrison and Stone, Comments Mol. Cell Biophys.

Values joined by “and” are separate entries in the source; they are usually repeats but may differ in a detail not shown here. Identical values can stand only once. Like-named read-outs stand apart in the source and are kept apart here.

PI3Kγ, sequence (P48736 whole entry, species assumed, canonical isoform): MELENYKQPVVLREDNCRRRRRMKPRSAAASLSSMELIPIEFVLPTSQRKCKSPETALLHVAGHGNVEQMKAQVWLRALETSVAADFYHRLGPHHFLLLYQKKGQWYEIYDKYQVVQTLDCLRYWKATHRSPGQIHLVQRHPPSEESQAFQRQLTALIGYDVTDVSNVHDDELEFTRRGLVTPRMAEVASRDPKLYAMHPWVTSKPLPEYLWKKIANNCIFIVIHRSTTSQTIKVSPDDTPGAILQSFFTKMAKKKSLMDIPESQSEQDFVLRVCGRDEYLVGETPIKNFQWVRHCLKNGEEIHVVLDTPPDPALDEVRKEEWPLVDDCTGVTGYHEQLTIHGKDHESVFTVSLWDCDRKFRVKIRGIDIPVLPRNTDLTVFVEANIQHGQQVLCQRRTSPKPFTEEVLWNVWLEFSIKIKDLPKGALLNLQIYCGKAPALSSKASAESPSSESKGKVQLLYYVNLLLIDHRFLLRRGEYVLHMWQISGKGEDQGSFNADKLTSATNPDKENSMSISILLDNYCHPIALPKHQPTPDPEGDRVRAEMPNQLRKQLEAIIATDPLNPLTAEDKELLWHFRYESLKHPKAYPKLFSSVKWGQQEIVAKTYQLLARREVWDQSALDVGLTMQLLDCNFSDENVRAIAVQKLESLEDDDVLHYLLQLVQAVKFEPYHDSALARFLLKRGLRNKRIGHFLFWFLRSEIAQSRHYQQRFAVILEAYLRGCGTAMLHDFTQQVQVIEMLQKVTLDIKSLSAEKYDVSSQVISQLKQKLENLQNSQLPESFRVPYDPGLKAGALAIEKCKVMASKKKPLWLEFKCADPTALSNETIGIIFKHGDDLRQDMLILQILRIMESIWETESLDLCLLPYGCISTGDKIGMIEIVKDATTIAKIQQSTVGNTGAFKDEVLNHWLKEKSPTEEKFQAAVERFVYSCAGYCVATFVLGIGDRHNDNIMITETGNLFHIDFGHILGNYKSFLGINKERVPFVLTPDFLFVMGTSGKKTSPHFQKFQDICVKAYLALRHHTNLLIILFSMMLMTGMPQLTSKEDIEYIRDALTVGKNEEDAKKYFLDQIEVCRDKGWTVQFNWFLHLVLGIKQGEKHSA

As to `COc1cc(N2CCc3nc(NC(=O)N4CCCC4)sc3C2)cnc1Cl` [Compound 57], the Ki (read-out: Ki for PI3Kγ) is less than 100 nM.
Still for that read-out and setting: as for `COc1cc(N2CCc3nc(NC(=O)NCCCN(C)C)sc3C2)cnc1Cl` [Compound 37], the figure is less than 100 nM.
On the same count and under the same terms, with `COCC(=O)Nc1nc2c(s1)CN(c1cncc(C(F)(F)F)c1)CC2` [Compound 8] the figure was less than 100 nM; with `COc1cc(N2CCc3nc(NC(=O)N4CC(OC)C4)sc3C2)cnc1Cl` [Compound 51], less than 100 nM; with `COc1cc(N2CCc3nc(NC(=O)CCNC(=O)c4ccccn4)sc3C2)cnc1OC` [Compound 32], less than 100 nM.
Turning to `COCCNC(=O)Nc1nc2c(s1)CN(c1cnc(Cl)c(OC)c1)CC2` [Compound 35], the Ki (read-out: Ki for PI3Kγ) is less than 100 nM.
Turning to `CCOCCCNC(=O)Nc1nc2c(s1)CN(c1cnc(Cl)c(OC)c1)CC2` [Compound 39], the Ki (read-out: Ki for PI3Kγ) was less than 100 nM.
For `COCC(=O)Nc1nc2c(s1)CN(c1cncc(OC)c1)CC2` [Compound 4], the inhibition constant Ki (read-out: Ki for PI3Kγ) is less than 100 nM.
Take `COc1cc(N2CCc3nc(NC(=O)CCNC(C)=O)sc3C2)cnc1Cl` [Compound 44]: the Ki (read-out: Ki for PI3Kγ) was less than 100 nM.
Consider `COc1ncc(N2CCc3nc(NC(C)=O)sc3C2)nc1OC` [Compound 14, N-(4,5,6,7-tetrahydro-5-(5,6-dimethoxypyrazin-2-yl)thiazolo[5,4-c]pyridin-2-yl)acetamide], for which, for the setting “read-out: Ki for PI3Kγ”, the Ki is less than 20 nM.
For the compound `CCCOCCNC(=O)Nc1nc2c(s1)CN(c1cnc(OC)c(OC)c1)CC2` [Compound 16], the Ki (read-out: Ki for PI3Kγ) is less than 100 nM.
For the compound `COc1cc(N2CCc3nc(NC(=O)NCCCO)sc3C2)cnc1Cl` [Compound 50], the Ki (read-out: Ki for PI3Kγ) is less than 100 nM.
Take `CC(=O)Nc1nc2c(s1)CN(c1cncc(C(F)(F)F)c1)CC2` [Compound 7]: under “read-out: Ki for PI3Kγ”, the Ki was less than 100 nM.
For `CCOC(=O)CCCNC(=O)Nc1nc2c(s1)CN(c1cnc(Cl)c(OC)c1)CC2` [Compound 34], the Ki (read-out: Ki for PI3Kγ) is less than 100 nM.
On the same count and under the same terms, with `COc1cncc(N2CCc3nc(Nc4cnccn4)sc3C2)c1` [Compound 18, 4,5,6,7-tetrahydro-5-(5-methoxypyridin-3-yl)-N-(pyrazin-2-yl)thiazolo[5,4-c]pyridin-2-amine] the figure was less than 100 nM; with `COc1cc(N2CCc3nc(NC(=O)NCCc4cn(CCF)cn4)sc3C2)cnc1Cl` [Compound 38], less than 100 nM.
`CCNC(=O)Nc1nc2c(s1)CN(c1cnc(OC)c(OC)c1)CC2` [Compound 10]: for the setting “read-out: Ki for PI3Kγ”, the inhibition constant (Ki) was less than 100 nM.
As for `COc1cc(N2CCc3nc(NC(=O)NCCCl)sc3C2)cnc1OC` [Compound 11], for the setting “Ki for PI3Kγ”, the Ki is less than 100 nM.
Take `CCNC(=O)Nc1nc2c(s1)CN(c1cncc(C(F)(F)F)c1)CC2` [Compound 6]: the Ki (read-out: Ki for PI3Kγ) is less than 100 nM.
In turn, `COc1cncc(N2CCc3nc(NC(=O)CF)sc3C2)c1` [Compound 19] had a Ki (Ki for PI3Kγ) of less than 100 nM.
As to `CC(=O)Nc1nc2c(s1)CN(c1cncc(C(F)(F)F)n1)CC2` [Compound 17], the Ki (read-out: Ki for PI3Kγ) is less than 100 nM.
On the same count and under the same terms, with `COc1cc(N2CCc3nc(NC(=O)CNC(=O)c4ccccn4)sc3C2)cnc1OC` [Compound 33] the figure was less than 100 nM.
On to `COc1cc(N2CCc3nc(NC=O)sc3C2)cnc1OC` [Compound 15], for which, for the setting “read-out: Ki for PI3Kγ”, the Ki was less than 100 nM.
As to `CCOC(=O)CCNC(=O)Nc1nc2c(s1)CN(c1cnc(Cl)c(OC)c1)CC2` [Compound 52], the inhibitory constant (Ki) (read-out: Ki for PI3Kγ) was < 20 nM and 3 nM and < 100 nM.
For `CCCOCCNC(=O)Nc1nc2c(s1)CN(c1cncc(C(F)(F)F)c1)CC2` [Compound 12], the Ki (read-out: Ki for PI3Kγ) is less than 20 nM.

Values taken from US8524906B2, “Tetrahydrothiazolopyridine inhibitors of phosphatidylinositol 3-kinase” (Vertex Pharmaceuticals Incorporated, priority 2009, dated 2013).
